Assay results: patent US7858738B2, “Synthetic human peptides and pharmaceutical compositions comprising them for the treatment of systemic lupus erythematosus” (Yeda Research and Development Co., Ltd., priority 2001, dated 2010)

Key:
[1] = system: (NZB×NZW)F1 mice; assay: Treatment of established SLE-like disease in (NZB×NZW)F1 mice; type: in vivo; conditions: for anti-dsDNA autoantibody O.D. values: sera 1:1250, end of treatment, PBS-treated 0.586±0.1
Description: (§1) Induction and treatment of experimental SLE. In order to induce experimental SLE, BALB/c mice were immunized with 1-2 μg of the human mAb 16/6Id and boosted 3 weeks later. For the prevention of experimental SLE, mice were given hCDR1 or hCDR3 (mCDR1 or revmCDR1 as control peptide in Example 12) intravenously (i.v.) or s.c. concomitant with the immunization, and were injected weekly thereafter for 5 weeks. Treatment of an established disease started three and a half months following disease induction with the 16/6Id, when clinical manifestations were already observed. In Example 12, mice received 10 weekly injections (i.v. or s.c.) of mCDR1 or revmCDR1 at a dose of 100 μg/mouse. Prevention and treatment of SLE-like disease in (NZB×NZW)F1 mice with the hCDR1 or mCDR1 peptide. For prevention of SLE, mice at the age of 2 months, before disease manifestations are observed, were injected s.c. with hCDR1 (or mCDR1 in Example 12, 250 μg/mouse) once a week for 10 weeks. To treat an established disease, mice at the age of 5-7 months were injected with hCDR1 (in Example 12, mCDR1 s.c., 250 μg/mouse) once a week for 10 weeks. Proliferative Responses. PBL were isolated from heparinized venous blood by Ficoll-Hypaque (Pharmacia) density-gradient centrifugation. All assays were performed, in triplicate, in flat-bottomed microtiter plates (Falcon, Becton Dickinson, Oxmard, Calif., USA) in which 2×10^5 PBL were cultured in enriched RPMI-1640 as described (Dayan et al., 2000). The PBL were exposed to various concentrations (0.1-40 μg/well) of the human anti-DNA 16/6Id mAb with and without the addition of the various CDR-based peptides at a concentration of at least 10-fold excess over that of the 16/6Id. Phytohemagglutinin (PHA; 2 μg/well) was used as a control for culture conditions at each experiment. The cultures were incubated in 7.5% CO2 at 37° C. for 6 days. Eighteen hours before the cells were harvested, [^3H]-thymidine (0.5μ Ci of 5 Ci/mmol) (Nuclear Research Center, Negev, Israel) was added to all cultures. Results are expressed as the mean thymidine incorporation in counts per minute (CPM) of triplicate culture±SD, or as stimulation index (S.I.; the ratio of mean CPM at the optimal concentration of the human 16/6Id to the mean CPM in the presence of medium alone). A S.I.≧2 was considered a positive response (Dayan et al., 2000). Inhibition (the ratio of mean CPM in the presence of the 16/6Id and various CDR-based peptides to the mean CPM with the 16/6Id without the CDR-based peptide) above 50% was considered positive. Induction of Cytokine Production. Mice that were immunized with the human 16/6Id mAb and either treated or not with the CDR-based peptide, were killed at different periods during or after treatment with the peptide. Splenocytes and lymph node cells (LNC) were harvested and incubated (5×10^6/ml) in the presence of the 16/6Id. Supernatants were collected after 48 and 72 h. Assessment of Cytokines in the Supernatants. Supernatants were collected 48 hours following the initiation of the cultures and stored at −70° C. Measurements of IL-2, IL-10, IFN-γ, and TNF-α were performed by ELISA by using the relevant standards, capture and detecting Abs (Pharmingen) according to the manufacturer's instructions. TGF-β was determined by an ELISA. Briefly, plates were coated with the recombinant human TGF-β1 sRIII/Fc chimera (R & D Systems Inc., Minneapolis, Minn., USA), and the second Ab used was the biotinylated anti-human TGF-β1 antibody (R & D Systems Inc.). The substrate solution used was TMB color Reagent (Helix Diagnostics, West Sacramento, Calif.), and enzyme activity was evaluated by using 570- and 630-nm filters. Detection of SLE-Associated Clinical and Pathological Manifestations. Proteinuria was measured semiquantitatively by using Combistix kit (Ames Division, Bayer Diagnostics, Newbury, U.K.). White blood cells (WBC, for leukopenia) were counted after a 10-fold dilution of heparinized blood in distilled water containing 1% acetic acid (vol/vol). […]

[2] = system: MMP-3; assay: MMP-3 levels in sera of (NZB×NZW)F1 mice (Western blot); type: in vivo; conditions: 300 μg s.c. once a week from age 7 months; sera after 5 injections; FIG. 23
Description: Induction and treatment of experimental SLE. In order to induce experimental SLE, BALB/c mice were immunized with 1-2 μg of the human mAb 16/6Id and boosted 3 weeks later. For the prevention of experimental SLE, mice were given hCDR1 or hCDR3 (mCDR1 or revmCDR1 as control peptide in Example 12) intravenously (i.v.) or s.c. concomitant with the immunization, and were injected weekly thereafter for 5 weeks. Treatment of an established disease started three and a half months following disease induction with the 16/6Id, when clinical manifestations were already observed. In Example 12, mice received 10 weekly injections (i.v. or s.c.) of mCDR1 or revmCDR1 at a dose of 100 μg/mouse. Prevention and treatment of SLE-like disease in (NZB×NZW)F1 mice with the hCDR1 or mCDR1 peptide. For prevention of SLE, mice at the age of 2 months, before disease manifestations are observed, were injected s.c. with hCDR1 (or mCDR1 in Example 12, 250 μg/mouse) once a week for 10 weeks. To treat an established disease, mice at the age of 5-7 months were injected with hCDR1 (in Example 12, mCDR1 s.c., 250 μg/mouse) once a week for 10 weeks. Proliferative Responses. PBL were isolated from heparinized venous blood by Ficoll-Hypaque (Pharmacia) density-gradient centrifugation. […] Results are expressed as the mean thymidine incorporation in counts per minute (CPM) of triplicate culture±SD, or as stimulation index (S.I.; the ratio of mean CPM at the optimal concentration of the human 16/6Id to the mean CPM in the presence of medium alone). […] TGF-β was determined by an ELISA. […] The substrate solution used was TMB color Reagent (Helix Diagnostics, West Sacramento, Calif.), and enzyme activity was evaluated by using 570- and 630-nm filters. […] Proteinuria was measured semiquantitatively by using Combistix kit (Ames Division, Bayer Diagnostics, Newbury, U.K.). White blood cells (WBC, for leukopenia) were counted after a 10-fold dilution of heparinized blood in distilled water containing 1% acetic acid (vol/vol). […]

[3] = system: MMP-9; assay: MMP-9 activity in sera of (NZB×NZW)F1 mice (gel zymography); type: in vivo; conditions: 300 μg s.c. once a week from age 7 months; sera after 5 injections; FIG. 23
Description: as §1, with “A S.I.≧2 was considered a positive response (Dayan et al., 2000). Inhibition (the ratio of mean CPM in the presence of the 16/6Id and various CDR-based peptides to the mean CPM with the 16/6Id without the CDR-based peptide) above 50% was considered positive. Induction of Cytokine Production. Mice that were immunized with the human 16/6Id mAb and either treated or not with the CDR-based peptide, were killed at different periods during or after treatment with the peptide. Splenocytes and lymph node cells (LNC) were harvested and incubated (5×10^6/ml) in the presence of the 16/6Id. Supernatants were collected after 48 and 72 h. Assessment of Cytokines in the Supernatants. Supernatants were collected 48 hours following the initiation of the cultures and stored at −70° C. Measurements of IL-2, IL-10, IFN-γ, and TNF-α were performed by ELISA by using the relevant standards, capture and detecting Abs (Pharmingen) according to the manufacturer's instructions.” left out, “Briefly, plates were coated with the recombinant human TGF-β1 sRIII/Fc chimera (R & D Systems Inc., Minneapolis, Minn., USA), and the second Ab used was the biotinylated anti-human TGF-β1 antibody (R & D Systems Inc.).” left out, “Detection of SLE-Associated Clinical and Pathological Manifestations.” left out

[4] = system: SJL-derived LNC; assay: In vivo inhibition of proliferation of SJL LNC to the human 16/6Id mAb; parameters: species or system mice; conditions: maximum % inhibition; 200 μg/mouse s.c. in PBS concomitant with priming
Description: Because our aim was to test the inhibitory capacity of the peptides based on the CDR of the human 16/6Id autoantibody, it was of importance to find out whether peptides hCDR1 and hCDR3 are capable of inhibiting the priming to the whole molecule of the human 16/6Id mAb. To this end, BALB/c and SJL mice were primed with the human 16/6Id mAb (2 μg/mouse) in CFA intradermally in the hind footpads. The priming was done concomitant with the s.c. administration in PBS of 200 μg/mouse of hCDR1 to groups of BALB/c mice and of hCDR3 to SJL mice. Ten days following immunization, the mice were sacrificed and their LNCs were tested in vitro for their ability to proliferate to different concentrations (0.1-10 μg/well) of the human anti-DNA 16/6Id mAb.
The results are presented as maximum % inhibition of the proliferation to the immunizing human 16/6Id mAb of lymph node cells of mice immunized and treated with the peptides hCDR1 and hCDR3 as compared with mice that were immunized with the 16/6Id mAb but were not treated with the peptides.

[5] = age 7 months, 10 weeks, 100 μg/mouse or 300 μg/mouse

Sequence	anti-dsDNA autoantibody O.D. values ([1]; 50 μg/mouse s.c. weekly for 10 weeks from age 5 and a half months) [O.D.]	number and intensity of immune complexes in kidney sections ([1]; 100 μg dose, mice sacrificed at 9 months, FIGS. 11A-11D)	anti-dsDNA autoantibody O.D. values ([1]; 100 μg/mouse s.c. weekly for 10 weeks from age 5 and a half months) [O.D.]	anti-dsDNA autoantibody O.D. values ([1]; 200 μg/mouse s.c. weekly for 10 weeks from age 5 and a half months) [O.D.]	Proteinuria g/L ± SEM ([1]; 300 μg/mouse s.c. weekly for 10 weeks at the age of 7 months, untreated 4.80 ± 2.56) [g/L]	Proteinuria g/L ± SEM ([1]; 300 μg/mouse, age 7 months, following treatment No 5, untreated 2.65 ± 1.76) [g/L]	Proteinuria g/L ± SEM ([1]; 300 μg/mouse, age 7 months, following treatment No 7, untreated 3.89 ± 2.73) [g/L]	Proteinuria g/L ± SEM ([1]; 300 μg/mouse, age 7 months, following treatment No 9, untreated 7.55 ± 3.95) [g/L]	Immune Complex Deposits ± SEM ([1]; 300 μg/mouse, age 7 months, intensity 0=no ICD to 3=severe and extremely intense ICD, untreated 2.57 ± 0.29, p = 0.035)	Proteinuria g/L ± SEM ([1]; 400 μg/mouse at the age of 6 months, untreated 4.99 ± 2.53) [g/L]	Immune Complex Deposits ± SEM ([1]; 400 μg/mouse, age 6 months, intensity score 0-3, untreated 2 ± 0.29, p = 0.05)	anti-DNA antibody titers in sera ([1]; 7-month old mice, 300 μg s.c. weekly for 10 weeks)	anti-dsDNA autoantibody titers ([1]; 50, 100 and 200 μg/mouse s.c. weekly for 10 weeks from age 5 and a half months)	anti-DNA autoantibody titers [1, 5]	proteinuria in comparison to the PBS-treated group [1, 5]	kidney disease ([1]; age 7 months, 10 weeks, 100 or 300 μg/mouse, more significant effect with 300 μg)	kidney disease ([1]; ten-week treatment, 50 μg dose less efficient than 100 and 200 μg)	levels of MMP-3 in pooled sera [2]	activity of MMP-9 in pooled sera [3]	% Inhibition of the proliferation of SJL-derived LNC to the human 16/6Id mAb [4] [%]
GYYWSWIRQPPGKGEEWIG (Human) [hCDR1, 19-mer peptide based on the CDR1 of the heavy chain of the human 16/6Id mAb]	0.27±0.1	reduced the number of immune complexes as well as their intensity	0.37±0.1	0.29±0.1	1.08 ± 0.38	0.61 ± 0.23	0.65 ± 0.32	1.02 ± 0.39	1.44 ± 0.41	0.77 ± 0.32	1.42 ± 0.19	mild reduction	moderate reduction	moderate reduction	reduction	ameliorated	reduced significantly	down regulated	down regulated	–
YYCARGLLRGGWNDVDYYGMDV (Human) [hCDR3, peptide based on the CDR3 of the heavy chain of the human 16/6Id mAb]	–	–	–	–	–	–	–	–	–	–	–	–	–	–	–	–	–	–	–	68
